Assay results published in publication PMC13336041, “Streptavidins Coordinate Biotin Sequestration and Self‐Resistance Within a Biotin‐Pathway Antibiotic Network” (Advanced Science, 2026).
pIC50, pKi: −log10 of the molar value.

Columns and labels:
BioA (EcBioA) = BioA (EcBioA) (Escherichia coli, UniProt P12995); experiment: BioA-BioD coupled enzyme assay with KAPA as substrate, LC-MS readout of desthiobiotin (IC50 […]); format: biochemical
[1] = biological target: BioA derived from S. lydicus (SlBioA); experiment: BioA-BioD coupled enzyme assay with KAPA as substrate, LC-MS readout; format: biochemical, Streptomyces lydicus
[2] = biological target: streptavidin 2 (Sav2), residues 45-169 (S. avidinii); experiment: not stated; in solution; method not given

Sequence of BioA (EcBioA) (P12995 whole entry): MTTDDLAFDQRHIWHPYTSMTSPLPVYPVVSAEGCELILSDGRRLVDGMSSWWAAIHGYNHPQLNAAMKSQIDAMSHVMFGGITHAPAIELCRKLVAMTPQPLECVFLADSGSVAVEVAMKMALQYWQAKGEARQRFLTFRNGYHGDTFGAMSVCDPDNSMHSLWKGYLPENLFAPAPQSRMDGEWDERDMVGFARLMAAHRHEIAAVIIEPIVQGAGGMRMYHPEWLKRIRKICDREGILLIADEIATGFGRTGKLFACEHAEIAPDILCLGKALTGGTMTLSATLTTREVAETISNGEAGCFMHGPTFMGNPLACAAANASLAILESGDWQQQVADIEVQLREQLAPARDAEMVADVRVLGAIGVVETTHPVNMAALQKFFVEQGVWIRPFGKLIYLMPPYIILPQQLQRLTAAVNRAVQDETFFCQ

| Compound | pKi (BioA (EcBioA)) | pIC50 [1] | stoichiometry N [2] |
| --- | --- | --- | --- |
| C[C@H](N)C(=O)CCCC[C@@H](C)C(=O)O [compound 5, α-methyl-KAPA] | 4.83 | 5.19 |  |
| streptavidin 2 (Sav2), residues 45-169 (domain or fragment) |  |  | 4 |
